We go through two substances from patent US20230190616A1, “COMPOUNDS USEFUL FOR THE TREATMENT AND/OR CARE OF THE SKIN, HAIR, NAILS AND/OR MUCOUS MEMBRANES” (LUBRIZOL ADVANCED MATERIALS, INC., priority 2018, published 2023).

Holding throughout (format): cell-based
Test [1] concerns collagen type I in primary human dermal fibroblasts (HDFn). The experiment in a line: Type I collagen synthesis on human dermal fibroblasts by ELISA. The note with it: 0.5 µg/ml, HDFn; for % Collagen induction: 48 hours, versus non-treated cells, mean of 5 assays. From the text: In vitro study of type I collagen synthesis on human dermal fibroblasts by Enzyme-Linked Immunosorbent Assay.
Collagen type I is the principal collagen of skin. This molecule, which is mainly produced by fibroblasts, is responsible for the strength and resiliency of this tissue. For this reason, in vitro quantification of collagen induction by cosmetic products on human dermal fibroblasts provides information about their potential anti-aging effects on the skin. Collagen induction by the peptides of the invention is evaluated with an Enzyme-Linked Immunosorbent Assay (ELISA). The aim of this study is to investigate the ability of a product to induce collagen type I synthesis in primary human dermal fibroblasts isolated from neonatal skin (HDFn).
HDFn (Cascade) are seeded at a density of 5×10^4 in 48-well plates. After 24-hour incubation, fresh medium with scalar dilutions of the test items at 0.5 µg/ml are added. Non-treated cells are used as basal control. The cells are treated for 48 hours. Then, the medium of the wells is collected and transferred into a 96-well plate. A standard calibration curve prepared with calf skin type I collagen (Sigma) is transferred into the plate as well. The plate is left overnight in order to coat type I collagen into its surface. After that, collagen I is detected with an anti-collagen type I antibody (Sigma). The primary antibody is then recognized by a secondary antibody IgG-HRP (molecular probes). 3,3,5,5-tetramethylbenzidine liquid substrate (TMB, Sigma) is added to measure the amount of secondary antibody attached. The color produced by this reaction is measured in a microtiter plate reader (Clariostar™, BMG) and type I collagen concentration is determined using a linear regression of the standard curve.

Test [2] has as its system Musclebind like protein 1 (MBNL1) in human skeletal muscle cells (hSkMc). The experiment in a line: Quantification of Musclebind like protein 1 in human skeletal muscle cells by TR-FRET. The note with it: 0.5 mg/ml, hSkMc; for % MBNL1 vs basal level: 48 hours, normalized to total protein. The procedure:
In vitro quantification of Musclebind like protein 1 in human skeletal muscle cells by Time resolved fluorescence resonance energy transfer.
MBNL1 induction by the peptides of the invention is evaluated by a Time resolved fluorescence resonance energy transfer (TR-FRET) assay. The aim of this study is to investigate the capacity of peptide candidates to increase MBNL-1 in human skeletal muscle cells (hSkMc).
hSkMc (Innoprot) are seeded in 12-well plates at a density of 1.5×10^4 cells/well in Skeletal Muscle Cell Growth Medium (Promocell). After 72 hours incubation, medium is removed and replaced with Skeletal Muscle Cell Differentiation Medium (Promocell). 48 hours after beginning cell differentiation, fresh differentiation medium with 0.5 mg/ml of test items is added. Treatment is continued for 48 hours and non-treated cells are used as basal control. After 48 hours of treatment, cell medium is removed and cell lysis buffer is added to wells. Immediately, plates are kept at -80° C. in order to improve protein extraction during the defrosting process. After 72 hours, cells are lysed by shaking the plates in an orbital rotor at room temperature for 45 minutes. Next, cell lysates are collected and assayed to quantify the level of MBNL-1 protein and total protein concentration.
MBNL-1 protein levels measurement is performed with Human MBNL1 Assay Kit (Cisbio) according to the manufacturer’s protocol. Briefly, the kit is used to perform a TR-FRET for MBNL1 quantification. The protein is detected with the antibodies provided in the kit and quantified by a fluorescence measurement. The quantification is carried out by using a microplate reader (ClarioStar™™™, BMG) set to 665 nm and 620 nm.
Total protein concentration of cell lysate is determined by using Pierce BCA Protein Assay Kit (Thermo Scientific) according to manufacturer’s protocol. In brief, after adding Working Reagent to the samples and the standards, the samples are incubated. Afterwards, color change is measured with an absorbance microplate reader (Clariostar™, BMG) at 562 nm. The total protein amount is used to normalize the level of MBNL1 protein concentration obtained by the TR-FRET test in the samples.
(TR-FRET usually uses a lanthanide donor and a delayed reading to cut background.)

The subject of test [3] is human muscular skeletal cells (hSKMC). The experiment in a line: Alleviation of TNF-α induced muscle mass loss in human skeletal muscle cells by immunofluorescence. The note with it: for % Loss (muscle mass loss): 0.01 mg/ml peptide after 20 ng/ml TNFα, normalized to mass loss control (BC + TNF) = 100; for Mass loss compared to basal control treated with TNF-α (in words): 0.01 mg/ml, hSKMC. The procedure: In vitro alleviation of the effects of muscle mass loss induced in human skeletal muscle cells by immunofluorescence.
Muscle mass loss correction by the peptides of the invention is evaluated by an immunofluorescence assay. The aim of this study is to investigate the capacity of peptide candidates to alleviate muscular mass loss after treatment with TNF-α in human muscular skeletal cells (hSKMC), i.e., to reverse the adverse effects induced by TNF-α (a model of muscular ageing). Myosin heavy chain (MHyC) is used as a morphologic marker of differentiated myotubes allowing the measurement of their diameters, and this can be used to ascertain a degree of mass loss. Tumor necrosis factor α (TNF-α) has been described in the literature as a muscle mass loss inductor.
hSKMC (Tebu-Bio) are seeded in 96-well plates at a density of 1.5×10^4 cells/well in Skeletal Muscle Cell Growth Medium (Promocell). After 24 hours incubation, the medium is replaced with Skeletal Muscle Cell Differentiation Medium (Promocell) and cells are differentiated for 6 days. After this, muscular cells mass loss is induced by adding fresh differentiation medium with 20 ng/ml TNFα (Sigma). Non-TNFα treated cells are used as a basal control (BC). After 24 hours of mass loss induction, the culture medium is replaced in some of the well plates with fresh differentiation medium comprising 0.01 mg/ml of the peptides of the invention. TNFα treated cells which are not treated with peptides are used as a mass loss control (BC + TNF) and cells which are treated with neither the peptides of the invention nor TNFα are used as a basal mass loss control (BC). Treatment is renewed 24 hours later. After 24 hours after the second treatment, immunofluorescence is determined. Cells are fixed 15 minutes with 4% Paraformaldehyde (Sigma), permeated 15 minutes with 1% Triton X-100 (Sigma) and then blocked with 5% Bovine Serum Albumin (Sigma). Next, primary antibody Anti-MHyC mouse (1:100, Vitro) is added and incubated overnight at 4° C. After that, secondary antibody Alexa Fluor 488 goat anti-mouse IgG (1:250, Life Technologies) is added and incubated for 1 hour. Finally, myotube diameters are determined by imaging MHyC staining by Operetta™ (Perkin Elmer). Percentage of mass loss is automatically calculated with Harmony™ (Perkin Elmer) software by classifying myotubes according to their diameter using a mass loss threshold of 20 µm. The results are normalized to the mass loss control (BC + TNF).

On to “Ac-L-Arg-L-Arg-L-Gln-D-Met-L-Glu-L-Glu-NH2 [PEP-23]”, for which, in test [1], the “% Collagen induction” value is 114.6% and the “Efficacy in increasing collagen type I compared with Argireline (in words)” value is on record as “even higher”. For the same substance, in test [2], the “% MBNL1 vs basal level” value came to 142.3%; the “MBNL1 levels compared to the basal control and to Argireline (in words)” value is “increase MBNL1 levels”. In addition, in test [3], the “% Loss (muscle mass loss)” value came out at 71.9% and the “Mass loss compared to basal control treated with TNF-α (in words)” value is “alleviate mass loss”.

Consider “Ac-L-Arg-L-Arg-D-Gln-L-Met-L-Glu-L-Glu-NH2 [PEP-22]”, for which the “% Collagen induction” value in test [1] is listed as 106.0%. In test [2], the “% MBNL1 vs basal level” value was found to be 141.4%; the “MBNL1 levels compared to the basal control and to Argireline (in words)” value is “increase MBNL1 levels”. Also, in test [3], the “% Loss (muscle mass loss)” value is 76.2% and the “Mass loss compared to basal control treated with TNF-α (in words)” value is “alleviate mass loss”.
